In patent EP1424337A1, “4-hydroxy derivatives of 5,6,9,10-tetrahydro-10-((2-methyl-1h-imidazol-1-yl)methyl)-4h-pyrido-(3,2,1-jk)-carbazol-11(8h)-one” (Solvay Pharmaceuticals GmbH, priority 2002, dated 2004):

Columns and labels:
5-HT3 receptor = target: T1, 5-HT3 receptor (Cavia porcellus, UniProt O70212); experiment: 2-methyl-5-HT induced contractions in isolated guinea-pig ileal preparations (5-HT3 receptor antagonism, Schild plot); parameters: species or system guinea pigs; conditions: for effect on concentration response curve for 2-methyl-5-HT: bath application; for effect on concentration response curve for 2-methyl-5-HT / Kb: guinea-pig ileum; for Kb: agonist 2-methyl-5-HT 0.32 - 100 µM, bath concentrations 0.1 and 1 µM (Ib), 1 and 3 µM (Ic), 5-6 preparations, read-out: pA2 (converted)
T1 construct: lleal segments were isolated and mounted in an organ bath; from tissue; host or cells: isolated guinea-pig ileal segments (female, Pirbright White)
T1 sequence (O70212 20-490): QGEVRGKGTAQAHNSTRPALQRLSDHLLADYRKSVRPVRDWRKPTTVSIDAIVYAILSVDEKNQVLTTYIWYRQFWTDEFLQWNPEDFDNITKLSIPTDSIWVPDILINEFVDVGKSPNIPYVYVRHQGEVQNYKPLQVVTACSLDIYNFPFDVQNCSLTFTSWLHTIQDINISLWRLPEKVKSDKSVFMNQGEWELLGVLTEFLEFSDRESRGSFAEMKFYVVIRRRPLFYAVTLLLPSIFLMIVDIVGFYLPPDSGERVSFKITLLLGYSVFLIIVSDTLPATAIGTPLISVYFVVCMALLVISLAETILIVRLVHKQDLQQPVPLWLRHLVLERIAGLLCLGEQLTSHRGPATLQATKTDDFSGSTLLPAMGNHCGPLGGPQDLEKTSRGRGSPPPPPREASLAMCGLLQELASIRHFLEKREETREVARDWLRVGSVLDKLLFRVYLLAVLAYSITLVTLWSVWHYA
Description: 2. Effect of mammalian cilansetron 4-hydroxymetabolites from dog's urine of formulas Ib and Ic on 2-methyl-5-HT induced contractions in ileal preparations isolated from guinea pigs (5-HT3 receptor antagonism)
In this test method, the antagonistic potency of the mammalian cilansetron 4-hydroxymetabolites from dog's urine of formulas Ib and Ic was investigated by determining the shift of the concentration-response curve for the specific 5-HT3 receptor agonist 2-methyl-5-HT in preparations from the guinea-pig ileum.
Guinea-pigs (female, Pirbright White, about 300 g) were killed by a blow on the head and bled from the carotid arteries. lleal segments were isolated and mounted in an organ bath containing a salt solution continuously gassed with carbogen and kept at 37 °C. The composition of the solution in mM was 136.9 NaCl, 2.7 KCI, 1.77 CaCl2, 0.8 MgCl2, 0.6 NaH2PO4, 11.9 NaHCO3, and 5 glucose. The preparations were preloaded with 10 mN and allowed to equilibrate for 90 - 120 minutes (= min.). The concentration response curves for 2-methyl-5-HT (0.32 - 100 µM, by company Sigma) were constructed non-cumulatively to avoid desensitization. The measurement was made at the point of maximal contraction and the agonist was washed out as soon as peak response was reached. A first 2-methyl-5-HT curve was followed by another concentration response curve in the presence of one concentration of the antagonist. The response to the highest concentration of 2-methyl-5-HT obtained in the first concentration response curve was set to 100 %. For each compound at least two concentrations of the antagonist were tested in different sets. Data from 5-6 preparations were used for each concentration response curve. Schild plots were calculated and the pA2 value was determined. The pA2-value is the negative logarithm of the molar concentration of the antagonist which causes a rightward shift of the concentration response curve for the agonist by a factor of 2. The higher the pA2-value is, the higher is the potency of a compound.
All test compounds were initially dissolved in dimethylsulfoxide (= DMSO) at concentrations of 10^-2 mol/I and were further diluted with water. The final bath concentrations for the different compounds used were 0.1 and 1 µM for compound of formula Ib and 1 and 3 µM for compound of formula Ic. […]
In this test method, the 5-HT3 agonist 2-methyl-5-HT evoked dose-dependent contractions of the guinea-pig ileum with a pD2-value of 5.2. The pD2-value is the negative logarithm of the molar […].

serotonin 5-HT3 receptor = target: T2, serotonin 5-HT3 receptor (Mus musculus, UniProt P23979); experiment: Radioligand binding assay with [3H]-GR-65630 on membranes of cell line N1E-115; parameters: species or system human; conditions: for Ki: competition with [^3H]-GR-65630 (0.35 nM), N1E-115 membranes, 20 mM HEPES pH 7.4, 150 mM NaCl, 25°C, 60 min, Cheng and Prusoff, read-out: Kl
T2 construct: the 5-HT3 receptor which was endogenously expressed in the human cell line N1E-115; endogenous in cells; host or cells: N1E-115 neuroblastoma cells (membrane suspensions)
T2 sequence (P23979 24-483 isoform P23979-2 limits assumed): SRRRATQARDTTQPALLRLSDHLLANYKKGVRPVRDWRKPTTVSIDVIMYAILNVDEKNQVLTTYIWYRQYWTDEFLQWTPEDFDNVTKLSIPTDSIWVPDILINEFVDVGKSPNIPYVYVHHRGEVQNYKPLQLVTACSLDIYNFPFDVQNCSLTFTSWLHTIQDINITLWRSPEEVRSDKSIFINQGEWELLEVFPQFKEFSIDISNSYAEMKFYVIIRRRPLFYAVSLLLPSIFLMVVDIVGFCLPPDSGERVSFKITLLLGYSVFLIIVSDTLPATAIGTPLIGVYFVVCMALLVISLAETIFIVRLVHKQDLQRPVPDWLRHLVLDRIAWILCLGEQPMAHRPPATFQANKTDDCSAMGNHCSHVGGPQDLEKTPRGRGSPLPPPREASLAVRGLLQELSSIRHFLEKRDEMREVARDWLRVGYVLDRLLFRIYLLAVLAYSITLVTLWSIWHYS
Protocol: 1. Affinity of 4-hydroxy derivatives of 5,6,9,10-tetrahydro-10-[(2-methyl-1H-imidazol-1-yl)methyl]-4H pyrido-[3,2,1-jk]-carbazol-11(8H)-one of formulas Ib - le for the human serotonin 5-HT3 receptor
In this test method, the ability of the 4-hydroxy derivatives of 5,6,9,10-tetrahydro-10-[(2-methyl-1H-imidazol-1-yl)methyl]-4H-pyrido-[3,2,1-jk]-carbazol-11(8H)-one of formulas Ib - le was assessed, for binding to the 5-HT3 receptor which was endogenously expressed in the human cell line N1E-115 and using tritiated GR-65630 as a radioligand.
The binding assays were carried out using the method of Hoyer and Neijt (see Hoyer, D., Neijt H.C., Mol. Pharmacol. 33, (1988) 303-309). Tritiated GR-65630 was used as radioligand and membrane suspensions, prepared in a known manner from the human neuroblastoma cell line N1E-115. Compounds have been tested for binding in various concentrations to compete with [^3H]-GR-65630 (0.35 nM final concentration) in 20 mM HEPES pH 7.4, containing 150 mM NaCl at 25°C for 60 min. Thereafter, the membranes were filtrated over glass fiber filters and bound radioactivity was counted by liquid scintillation counting. Each concentration was tested in triplicate, nonspecific binding was assessed by incubation with the reference compound MDL-72222 (1 µM).
Plotting the amount of bound radioactivity against the concentration of the competing compound allowed estimation of an IC50 value, i.e. that concentration at which 50% of the control radioligand binding remains. […]

Q: Which EC50 (5-HT3 receptor; agonist-evoked dose-dependent contractions of the guinea-pig ileum, read-out: pD2-value (converted)) does the source give for `Cc1[nH]c2ccc(O)cc2c1CCN` [2-methyl-5-HT, reference compound] here?
A: The EC50 was 6310 nM.

Q: What does the source list for `Cc1nccn1C[C@H]1CCc2c(c3cccc4c3n2CC[C@@H]4O)C1=O` [Ib]?
A: Ki (serotonin 5-HT3 receptor): 3 nM; effect on concentration response curve for 2-methyl-5-HT (5-HT3 receptor): dose-dependent shift of the concentration response curve to the right; Kb (5-HT3 receptor): 186 nM

Q: `Cc1nccn1C[C@H]1CCc2c(c3cccc4c3n2CC[C@H]4O)C1=O` [Ic] was tested. Which Ki (serotonin 5-HT3 receptor) did it give?
A: Its Ki is 10 nM.

Q: And the “effect on concentration response curve for 2-methyl-5-HT” value (5-HT3 receptor)?
A: The value was “dose-dependent shift of the concentration response curve to the right”.

Q: What about the Kb (5-HT3 receptor) of the same molecule?
A: Its Kb is 355 nM.

Q: For `Cc1nccn1C[C@@H]1CCc2c(c3cccc4c3n2CC[C@@H]4O)C1=O` [Id], which Ki (serotonin 5-HT3 receptor) is on record?
A: The Ki was 8.8 nM.

Q: `Cc1[nH]cnc1CCC(=O)c1cn(C)c2ccccc12` [[^3H]-GR-65630, reference compound] was tested. Which Kd (serotonin 5-HT3 receptor; radioligand, established separately, read-out: Kd, the affinity constant for [^3H]-GR-65630) did it give?
A: Its Kd is 0.33 nM.

Q: Which Ki (serotonin 5-HT3 receptor) does the source give for `Cc1nccn1C[C@@H]1CCc2c(c3cccc4c3n2CC[C@H]4O)C1=O` [le] here?
A: Its Ki is 38 nM.
